Assay [1] in a line: Luminescence Cell-Based Dose Response HTS to Identify Inhibitors of Luciferase Translation or Activity in H4-C Neuroglioblastoma Cells. [Related pubchem assays: 1813 (Primary HTS), 1827 (Project Summary)]. Format: functional.
The nature of assay [2]: Luminescence Cell-Based Dose Response HTS to Identify Activators of Luciferase Translation or Activity in H4-C Neuroglioblastoma Cells. [Related pubchem assays: 1829 (Project Summary), 1814 (Primary HTS)]. Format: functional.
Assay [3] is described as follows: luciferase reporter signal suppression in cells – H4 neuroglioma cells, luminescence, dose response (AID 1990). Format: functional, cell-based. On the technique in general: Reporter assays use an easily measured gene product as a stand-in for the process of interest.
A short description of assay [4]: luciferase reporter signal reduction – luminescence, H4-C neuroglioblastoma cells, dose response (AID 2458).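 Also: H4 neuroglioblastoma cells stably carrying a luciferase reporter gene fusion.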 Format: functional, cell-based.
The nature of assay [5]: Luminescence Cell-Based Dose Retest to Confirm Activators of 5'UTR Stem-Loop Driven Alpha-Synuclein mRNA Translation in H4 Neuroglioblastoma Cells. [Related pubchem assays (depositor defined):AID1813, AID1829]. Format: functional.
Assay [6] in a line: Luminescence Cell-Based Dose Response HTS to Identify Activators of 5'UTR Stem-Loop Driven Prion Protein mRNA Translation in H4-C Neuroglioblastoma Cells. [Related pubchem assays: 1829 (Project Summary), 1814 (Primary HTS)]. Format: functional.
Assay [7] can be described thus: Luminescence Cell-Based Dose HTS Response to Identify Inhibitors of 5'UTR Stem-Loop Driven Prion Protein mRNA Translation in H4-C Neuroglioblastoma Cells. [Related pubchem assays (depositor defined):AID1814, AID1827]. Format: functional.
Assay [8] relates to BJ. In words: BJ-TERT fibroblast viability loss – cell-based, RAS-independent, luminescence, dose response (AID 1933). The format is functional. Particulars: Homo sapiens.
The nature of a further assay: cells. Format: functional, cell-based.
Assay [9] is described as follows: Luminescence Cell-Based Dose Response HTS to Identify Inhibitors of 5'UTR Stem-Loop Driven Prion Protein mRNA Translation in H4 Neuroglioblastoma Cells. [Related pubchem assays: 1827 (Project Summary), 1813 (Primary HTS)]. The format is functional.
Assay [10] in a line: alpha-synuclein stem-loop luciferase translation blockers – H4 neuroglioma cells, luminescence, confirmation (AID 1988). The format is functional, cell-based.
Assay [11] has as its system BJ. Nature of the assay: cells. The format is functional, cell-based. Particulars: Homo sapiens.
Assay [12] in a line: Luminescence Cell-Based Dose Confirmation HTS to Identify Inhibitors of 5'UTR Stem-Loop Driven Alpha-Synuclein mRNA Translation in H4 Neuroglioblastoma Cells. [Related pubchem assays: 1827 (Project Summary), 1813 (Primary HTS)]. Format: functional.
The test system of assay [13] is BJ. Nature of the assay: BJ-TERT-LT-ST fibroblast viability loss – cell-based, RAS-independent, luminescence, dose response (AID 1935).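 Also: BJ fibroblasts immortalized with TERT plus LT and ST oncogenes.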 The format is functional. Particulars: Homo sapiens.
Assay [14] is described as follows: DRD fibroblast viability loss – cell-based, non-viral oncogenic, luminescence, dose response (AID 1934). The format is functional. The following applies: Homo sapiens.
Assay [15] can be described thus: alpha-synuclein stem-loop translation blockers – luminescence, H4 neuroglioblastoma cells, dose confirmation, confirmation (AID 2454).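 Also: H4 neuroglioblastoma cells carrying an alpha-synuclein 5'UTR luciferase reporter; potency for inhibition of the luciferase signal.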 Format: functional, cell-based.
The subject of assay [16] is BJ. In words: growth inhibition of engineered Ras-driven BJ cells – cell-based, alamar blue fluorescence, cherrypicked samples, dose response (AID 2631).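 Also: confirmatory dose-response assay in RAS-dependent BJ fibroblasts engineered with TERT, LT and ST, with cytotoxicity read by fluorescence.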 Particulars: Homo sapiens. Format: functional.
The nature of assay [17]: toxicity toward HEK293 cells – cell-based, dry powder samples, cytotoxicity control, dose response (AID 720567). The format is functional.
Assay [18] concerns the target T1, G-protein coupled receptor 35 (Homo sapiens, UniProt Q9HC97). In words: SAR analysis of Agonists of the GPR35 Receptor using an Image-Based Assay - Set 4. [Related pubchem assays (depositor defined):AID2013, AID2026]. Format: functional.
In assay [19] the target is T2, Cannabinoid receptor 1 (Homo sapiens, UniProt P21554). Nature of the assay: SAR analysis of agonists of the Cannabinoid Receptor 1 using an Image-Based Assay - Set 4. [Related pubchem assays (depositor defined):AID2013, AID2026]. The format is functional.
In assay [20] the target is T1, G-protein coupled receptor 35. Nature of the assay: SAR analysis of Antagonists of the GPR35 Receptor using an Image-Based Assay - Set 6. [Related pubchem assays (depositor defined):AID2013, AID2026]. The format is functional.
Assay [21] deals with T2, Cannabinoid receptor 1. Nature of the assay: SAR analysis of antagonists of the Cannabinoid Receptor 1 using an Image-Based Assay - Set 4. [Related pubchem assays (depositor defined):AID2013, AID2026]. Format: functional.
Assay [22] deals with G-protein coupled receptor 55 (Homo sapiens, UniProt Q9Y2T6). Nature of the assay: SAR Analysis of Selective Antagonists of GPR55 using an Image-Based Assay - Set 4. [Related pubchem assays (depositor defined):AID2013, AID2026]. Format: functional.
Assay [23] has as its target T3, Cannabinoid receptor 2 (Homo sapiens, UniProt P34972). In words: SAR analysis of antagonists of the Cannabinoid Receptor 2 using an Image-Based Assay - Set 3. [Related pubchem assays (depositor defined):AID2013, AID2026]. The format is functional.
Assay [24] concerns the target T3, Cannabinoid receptor 2. In words: SAR analysis of agonists of the Cannabinoid Receptor 2 using an Image-Based Assay - Set 3. [Related pubchem assays (depositor defined):AID2013, AID2026]. Format: functional.

SMILES strings stand for the structures. Activity calls are given as the source filed them.

T2 sequence (P21554 whole entry): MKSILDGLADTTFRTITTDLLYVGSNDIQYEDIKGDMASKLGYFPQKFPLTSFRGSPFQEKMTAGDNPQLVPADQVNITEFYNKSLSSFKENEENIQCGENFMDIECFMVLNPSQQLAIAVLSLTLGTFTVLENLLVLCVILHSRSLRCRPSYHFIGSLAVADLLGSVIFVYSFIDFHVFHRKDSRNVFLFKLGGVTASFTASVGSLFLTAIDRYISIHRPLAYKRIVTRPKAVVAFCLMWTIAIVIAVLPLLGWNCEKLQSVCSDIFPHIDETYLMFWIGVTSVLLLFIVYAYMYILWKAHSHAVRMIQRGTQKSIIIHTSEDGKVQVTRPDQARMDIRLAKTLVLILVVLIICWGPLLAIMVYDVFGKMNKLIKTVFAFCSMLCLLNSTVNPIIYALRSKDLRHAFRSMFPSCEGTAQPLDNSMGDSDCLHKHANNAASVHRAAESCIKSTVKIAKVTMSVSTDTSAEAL
T1 sequence (Q9HC97 whole entry): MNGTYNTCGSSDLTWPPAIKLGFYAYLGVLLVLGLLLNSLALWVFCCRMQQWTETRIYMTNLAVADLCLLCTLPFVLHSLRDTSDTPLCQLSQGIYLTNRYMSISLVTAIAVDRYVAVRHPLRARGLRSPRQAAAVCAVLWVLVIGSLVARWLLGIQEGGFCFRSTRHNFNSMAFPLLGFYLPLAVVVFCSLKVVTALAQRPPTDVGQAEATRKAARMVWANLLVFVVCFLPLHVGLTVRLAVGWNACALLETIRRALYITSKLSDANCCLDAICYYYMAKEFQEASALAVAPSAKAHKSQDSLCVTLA
T3 sequence (P34972 whole entry): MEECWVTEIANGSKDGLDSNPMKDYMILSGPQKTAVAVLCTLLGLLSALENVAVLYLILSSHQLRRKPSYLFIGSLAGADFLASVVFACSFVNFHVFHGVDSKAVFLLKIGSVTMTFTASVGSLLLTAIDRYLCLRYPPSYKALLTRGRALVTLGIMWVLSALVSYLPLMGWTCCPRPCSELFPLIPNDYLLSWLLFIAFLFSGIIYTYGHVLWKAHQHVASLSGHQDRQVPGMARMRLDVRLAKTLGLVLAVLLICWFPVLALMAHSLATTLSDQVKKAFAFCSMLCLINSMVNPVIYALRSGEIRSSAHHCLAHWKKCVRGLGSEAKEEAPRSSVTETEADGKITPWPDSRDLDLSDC
Chain of G-protein coupled receptor 55 (Q9Y2T6 whole entry): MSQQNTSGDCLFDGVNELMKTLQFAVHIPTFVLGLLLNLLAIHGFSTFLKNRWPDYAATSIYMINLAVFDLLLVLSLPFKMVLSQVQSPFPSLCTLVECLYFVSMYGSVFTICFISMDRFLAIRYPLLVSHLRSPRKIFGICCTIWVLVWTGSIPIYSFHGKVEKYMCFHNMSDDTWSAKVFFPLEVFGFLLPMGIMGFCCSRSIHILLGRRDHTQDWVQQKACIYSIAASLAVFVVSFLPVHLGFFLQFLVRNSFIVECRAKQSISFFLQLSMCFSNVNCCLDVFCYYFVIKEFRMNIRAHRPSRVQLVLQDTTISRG

As to `COc1cccc(N2CCN(C(=O)c3ccc(C[S+]([O-])c4ccc(C)cc4)o3)CC2)c1` (stereo not given), the EC50 in assay [1] was 703 nM (active); in assay [2] it was 703 nM (inconclusive); in [3] it was 5760 nM (active); in assay [4] it was 930 nM (active); in [5] it was 36400 nM (inconclusive); in assay [6], 186 nM (inconclusive). Besides, the EC50 in assay [7] is 186 nM (active); with BJ [8], 873 nM (active); in the assay “cells” it was 1570 nM (active); in assay [9] it was 12600 nM (active); in [10], < 100 nM (active); in the assay with BJ [11] it was 479 nM (inconclusive). In addition, the EC50 is 36400 nM (active) in assay [12]; 651 nM (active) with BJ [13]; 637 nM (active) in assay [14]; 1430 nM (active) in [15]; < 104 nM (active) in the assay with BJ [16]. Further, the AC50 in assay [17] was > 30000 nM (inactive).
For the compound `COc1ccc(-c2cc(C(=O)Nc3ccc(S(=O)(=O)Nc4ncccn4)cc3)c3ccccc3n2)cc1`, the EC50 (in assay [18]; on Cannabinoid receptor 1 [19]; at Cannabinoid receptor 2 [24]) was > 32000 nM (inactive) in each case. Besides, the IC50 was > 32000 nM (inactive) in [20], 24500 nM (inactive) on Cannabinoid receptor 1 [21], > 32000 nM (inactive) in assay [22] and > 32000 nM (inactive) at Cannabinoid receptor 2 [23].

What is called EC50 is the concentration at which the effect is half-maximal. One may read the AC50 as the concentration at which the activity in the assay is half-maximal. For orientation: IC50 means the midpoint of a concentration-inhibition curve.

The values above are taken from ChEMBL document CHEMBL1201862, “PubChem BioAssay data set” (2004).
